SMILES strings stand for the structures. pIC50: −log10 of the molar value.

A word on the pIC50: it is the negative decadic logarithm of the IC50, by convention in mol/L.

In the assay the target is human TRPA1 (Homo sapiens (Human), UniProt O75762). Nature of the assay: IC50 determination on the human TRPA1 channel, calcium fluorescence (Hamamatsu FDSS plate reader). Type of assay: cell-based. The note with it: CHO cells expressing human TRPA1; block of cinnamaldehyde induced calcium influx; 20 minutes compound incubation; Hill coefficient fixed to 1.5; read-out: hTRPA1 AUC IC50. How it is done: IC50s (effective concentration) of compounds on the human TRPA1 channel were determined using a Hamamatsu FDSS fluorescence plate reader. CHO cells expressing human TRPA1 were plated into 384-well plates, incubated overnight at 37 C, and loaded with BD calcium indicator dye for 1 hr at 37° C. followed by 15 minutes. at room temperature. The assay buffer was Hank's Balanced Salt Solution (HBSS) containing 20 mM HEPES (pH readjusted to 7.4) along with 0.02% BSA.
Sequence of human TRPA1 (O75762 whole entry): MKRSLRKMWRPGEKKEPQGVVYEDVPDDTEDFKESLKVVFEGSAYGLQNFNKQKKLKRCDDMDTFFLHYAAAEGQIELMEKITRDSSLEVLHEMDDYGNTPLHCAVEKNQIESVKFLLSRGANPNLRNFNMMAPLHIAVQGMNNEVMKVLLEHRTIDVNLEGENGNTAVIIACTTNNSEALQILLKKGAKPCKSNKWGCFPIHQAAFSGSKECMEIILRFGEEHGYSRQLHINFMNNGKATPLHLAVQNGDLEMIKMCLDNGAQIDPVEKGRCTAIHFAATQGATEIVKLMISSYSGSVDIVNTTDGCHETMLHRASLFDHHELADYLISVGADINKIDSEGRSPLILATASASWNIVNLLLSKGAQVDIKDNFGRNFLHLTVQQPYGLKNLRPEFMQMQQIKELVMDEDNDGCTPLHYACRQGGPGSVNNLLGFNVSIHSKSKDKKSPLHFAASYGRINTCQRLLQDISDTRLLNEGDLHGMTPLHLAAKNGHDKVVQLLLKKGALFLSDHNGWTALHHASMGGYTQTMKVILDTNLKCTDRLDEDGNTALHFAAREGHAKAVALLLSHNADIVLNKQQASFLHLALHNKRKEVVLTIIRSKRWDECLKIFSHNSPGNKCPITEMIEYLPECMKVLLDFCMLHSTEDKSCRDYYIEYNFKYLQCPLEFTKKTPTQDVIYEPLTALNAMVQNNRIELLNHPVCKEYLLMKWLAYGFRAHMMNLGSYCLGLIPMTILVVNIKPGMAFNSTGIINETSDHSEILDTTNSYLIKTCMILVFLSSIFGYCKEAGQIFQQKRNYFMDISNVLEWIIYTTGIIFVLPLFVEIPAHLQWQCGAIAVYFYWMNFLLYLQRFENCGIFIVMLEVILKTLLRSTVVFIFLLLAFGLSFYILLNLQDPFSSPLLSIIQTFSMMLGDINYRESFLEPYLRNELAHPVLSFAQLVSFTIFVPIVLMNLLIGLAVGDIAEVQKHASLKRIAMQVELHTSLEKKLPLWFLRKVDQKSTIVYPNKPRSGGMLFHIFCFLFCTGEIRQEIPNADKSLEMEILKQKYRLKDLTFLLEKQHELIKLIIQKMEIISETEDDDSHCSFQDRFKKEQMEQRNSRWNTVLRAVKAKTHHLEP
Following dye load and plate cool down, compounds were added to the cells using the FDSS while monitoring fluorescence to determine whether any of the test compounds have TRPA1 agonist activity. Plates were then incubated with compound for 20 minutes at room temperature prior to adding agonist. Following this incubation, […] cinnamaldehyde was added to all wells of the plate and block of this cinnamaldehyde induced calcium influx was measured.
Fixing the Hill coefficient will generally reduce variability of the IC50 determination. The IC50s were examined by eye to make sure the MIN and MAX points were set correctly prior to validation of the results.
On to `O=C(NCc1cc(-c2ccc(C3CC3)nc2)ncn1)[C@@H]1C[C@@H](F)CN1S(=O)(=O)c1ccc(F)cc1` [Example 23, (2S,4R)—N-((6-(6-cyclopropylpyridin-3-yl)pyrimidin-4-yl)methyl)-4-fluoro-1-(4-fluorophenylsulfonyl)pyrrolidine-2-carboxamide], for which the pIC50 was 5.57.

Regarding `O=C(NCc1cc(-c2ccc(C(F)(F)F)nc2)ncn1)[C@@H]1C[C@@H](F)CN1S(=O)(=O)c1ccc(Cl)s1` [Example 24, (2S,4R)-1-(5-chlorothiophen-2-ylsulfonyl)-4-fluoro-N-((6-(6-(trifluoromethyl)pyridin-3-yl)pyrimidin-4-yl)methyl)pyrrolidine-2-carboxamide], the pIC50 was 7.57.

Regarding `O=C(NCc1cc(-c2ccc(C(F)(F)F)nc2)ncn1)[C@@H]1C[C@@H](F)CN1S(=O)(=O)c1ccc(F)c(F)c1` [Example 25, (2S,4R)-1-(3,4-difluorophenylsulfonyl)-4-fluoro-N-((6-(6-(trifluoromethyl)pyridin-3-yl)pyrimidin-4-yl)methyl)pyrrolidine-2-carboxamide], the negative-log IC50 (pIC50) is 6.90.

For `O=C(NCc1cc(-c2ccc(C(F)(F)F)cc2)ncn1)[C@@H]1C[C@@H](F)CN1S(=O)(=O)c1ccc(F)c(F)c1` [Example 26, (2S,4R)-1-(3,4-difluorophenylsulfonyl)-4-fluoro-N-((6-(4-(trifluoromethyl)phenyl)pyrimidin-4-yl)methyl)pyrrolidine-2-carboxamide], the pIC50 was 7.52.

As to `O=C(NCc1cc(-c2ccc(C(F)(F)F)nc2)ncn1)[C@@H]1C[C@@H](F)CN1S(=O)(=O)c1cncc(F)c1` [Example 27, (2S,4R)-4-fluoro-1-(5-fluoropyridin-3-ylsulfonyl)-N-((6-(6-(trifluoromethyl)pyridin-3-yl)pyrimidin-4-yl)methyl)pyrrolidine-2-carboxamide], the pIC50 is 5.52.

Regarding `O=C(NCc1cc(-c2ccc(C(F)(F)F)cc2)ncn1)[C@@H]1C[C@@H](F)CN1S(=O)(=O)c1cncc(F)c1` [Example 28, (2S,4R)-4-fluoro-1-(5-fluoropyridin-3-ylsulfonyl)-N-((6-(4-(trifluoromethyl)phenyl)pyrimidin-4-yl)methyl)pyrrolidine-2-carboxamide], the negative-log IC50 (pIC50) was 6.64.

With `O=C(NCc1cc(-c2ccc(SC(F)(F)F)cc2)ncn1)[C@@H]1C[C@@H](F)CN1S(=O)(=O)c1ccc(F)cc1` [Example 29, (2S,4R)-4-fluoro-1-(4-fluorophenylsulfonyl)-N-((6-(4-(trifluoromethylthio)phenyl)pyrimidin-4-yl)methyl)pyrrolidine-2-carboxamide], the pIC50 was 7.49.

For `COC[C@@]1(C(=O)NCc2cc(-c3ccc(C(F)(F)F)nc3)ncn2)CCCN1S(=O)(=O)c1ccc(F)cc1` [Example 30, (R)-1-(4-fluorophenylsulfonyl)-2-(methoxymethyl)-N-((6-(6-(trifluoromethyl)pyridin-3-yl)pyrimidin-4-yl)methyl)pyrrolidine-2-carboxamide], the negative-log IC50 (pIC50) is 6.60.

On to `O=C(NCc1cc(-c2ccc(C(F)(F)F)nc2)ncn1)[C@]1(C(F)F)CCCN1S(=O)(=O)c1ccc(F)cc1` [Example 31, (S)-2-(difluoromethyl)-1-(4-fluorophenylsulfonyl)-N-((6-(6-(trifluoromethyl)pyridin-3-yl)pyrimidin-4-yl)methyl)pyrrolidine-2-carboxamide], for which the negative logarithm of the IC50 (pIC50) is 7.54.

For the molecule `N#C[C@@]1(C(=O)NCc2cc(-c3ccc(C(F)(F)F)nc3)ncn2)CCCN1S(=O)(=O)c1ccc(F)cc1` [Example 32, (R)-2-cyano-1-(4-fluorophenylsulfonyl)-N-((6-(6-(trifluoromethyl)pyridin-3-yl)pyrimidin-4-yl)methyl)pyrrolidine-2-carboxamide], the negative logarithm of the IC50 (pIC50) was 6.06.

Regarding `O=C(NCc1cc(-c2ccc(C(F)(F)F)cc2)ncn1)[C@@H]1[C@H]2CC[C@H](C2)N1S(=O)(=O)c1ccc(F)cc1` [Example 33, (1R,3S,4S)-2-(4-fluorophenylsulfonyl)-N-((6-(4-(trifluoromethyl)phenyl)pyrimidin-4-yl)methyl)-2-azabicyclo[2.2.1]heptane-3-carboxamide], the pIC50 is 7.64.

Source of the values: patent US11236046B2, “Substituted heterocyclic sulfonamide compounds useful as TRPA1 modulators” (Genentech, Inc., priority 2013, dated 2022).
